The record followed here is PMC10296281 (2023).

Assay in all cases: bio-layer interferometry, 1:1 local fit
Experiment [1] deals with Sequence 1 (original aptamer, 1 to 80) (DNA, aptamer) AGCAGCACAGAGGTCAGATGACTTCAGTGAGTTGTCCCACGGTCGGCGAGTCGGTGGTAGCCTATGCGTGCTACCGTGAA
Conditions: 100 mM NaCl, 5 mM KCl, 2 mM MgCl2, 1 mM CaCl2; 20 mM Tris-HCl, 0.02 Tween 20, pH 7.6; R2 0.993.

Experiment [2] concerns Sequence 2 (6 to 80) (DNA, aptamer) CACAGAGGTCAGATGACTTCAGTGAGTTGTCCCACGGTCGGCGAGTCGGTGGTAGCCTATGCGTGCTACCGTGAA
The note with it: 100 mM NaCl, 5 mM KCl, 2 mM MgCl2, 1 mM CaCl2; 20 mM Tris-HCl, 0.02 Tween 20, pH 7.6; R2 0.973.

The test system of experiment [3] is Sequence 10 (31 to 50) (DNA, aptamer) GTTGTCCCACGGTCGGCGAG
The note with it: 100 mM NaCl, 5 mM KCl, 2 mM MgCl2, 1 mM CaCl2; 20 mM Tris-HCl, 0.02 Tween 20, pH 7.6; R2 0.699 (poor fit).

Experiment [4] deals with Sequence 5 (21 to 80) (DNA, aptamer) ACTTCAGTGAGTTGTCCCACGGTCGGCGAGTCGGTGGTAGCCTATGCGTGCTACCGTGAA
Conditions: 100 mM NaCl, 5 mM KCl, 2 mM MgCl2, 1 mM CaCl2; 20 mM Tris-HCl, 0.02 Tween 20, pH 7.6; R2 0.924.

In experiment [5] the test system is Sequence 11 (41 to 80) (DNA, aptamer) GGTCGGCGAGTCGGTGGTAGCCTATGCGTGCTACCGTGAA
The note with it: 100 mM NaCl, 5 mM KCl, 2 mM MgCl2, 1 mM CaCl2; 20 mM Tris-HCl, 0.02 Tween 20, pH 7.6; R2 0.757.

Experiment [6] relates to Sequence 3 (1 to 75) (DNA, aptamer) AGCAGCACAGAGGTCAGATGACTTCAGTGAGTTGTCCCACGGTCGGCGAGTCGGTGGTAGCCTATGCGTGCTACC
The note with it: 100 mM NaCl, 5 mM KCl, 2 mM MgCl2, 1 mM CaCl2; 20 mM Tris-HCl, 0.02 Tween 20, pH 7.6; R2 0.946.

Experiment [7] concerns Sequence 6 (1 to 60) (DNA, aptamer) AGCAGCACAGAGGTCAGATGACTTCAGTGAGTTGTCCCACGGTCGGCGAGTCGGTGGTAG
The note with it: 100 mM NaCl, 5 mM KCl, 2 mM MgCl2, 1 mM CaCl2; 20 mM Tris-HCl, 0.02 Tween 20, pH 7.6; R2 0.905.

The subject of experiment [8] is Sequence 7 (21 to 60) (DNA, aptamer) ACTTCAGTGAGTTGTCCCACGGTCGGCGAGTCGGTGGTAG
The note with it: 100 mM NaCl, 5 mM KCl, 2 mM MgCl2, 1 mM CaCl2; 20 mM Tris-HCl, 0.02 Tween 20, pH 7.6; R2 0.882.

Experiment [9] concerns Sequence 8 (31 to 80) (DNA, aptamer) GTTGTCCCACGGTCGGCGAGTCGGTGGTAGCCTATGCGTGCTACCGTGAA
The note with it: 100 mM NaCl, 5 mM KCl, 2 mM MgCl2, 1 mM CaCl2; 20 mM Tris-HCl, 0.02 Tween 20, pH 7.6; R2 0.853.

For experiment [10], the system named is Sequence 4 (6 to 75) (DNA, aptamer) CACAGAGGTCAGATGACTTCAGTGAGTTGTCCCACGGTCGGCGAGTCGGTGGTAGCCTATGCGTGCTACC
The note with it: 100 mM NaCl, 5 mM KCl, 2 mM MgCl2, 1 mM CaCl2; 20 mM Tris-HCl, 0.02 Tween 20, pH 7.6; R2 0.945.

Experiment [11] concerns Sequence 9 (1 to 50) (DNA, aptamer) AGCAGCACAGAGGTCAGATGACTTCAGTGAGTTGTCCCACGGTCGGCGAG
Conditions: 100 mM NaCl, 5 mM KCl, 2 mM MgCl2, 1 mM CaCl2; 20 mM Tris-HCl, 0.02 Tween 20, pH 7.6; R2 0.914.

Structures are written as SMILES.

For `O=C(N[C@H](CO)[C@H](O)c1ccc([N+](=O)[O-])cc1)C(Cl)Cl`, the Kd in experiment [1] is 704 nM; in experiment [2], 877 nM; in experiment [3], 3109 nM; in experiment [4], 1712 nM; in [5], 426 nM; in [6] it was 645 nM. Also, the Kd came out at 4014 nM in experiment [7]; 370 nM in experiment [8]; 153 nM in [9]; 661 nM in experiment [10]; 92 nM in experiment [11].

By Kd is commonly meant a measure of binding affinity in units of concentration. Low values mean higher affinity, high ones lower affinity.
